Biological target: human GLP-1R (Homo sapiens, UniProt P43220, G168S)
Experiment: CHO GLP-1R Clone H6 cAMP HTRF agonist assay (Assay 1, high receptor density)
Type: cell-based
Conditions: for EC50: CHO GLP-1R clone H6, cAMP HTRF, geometric mean; for Emax: CHO GLP-1R clone H6, arithmetic mean, relative to saturating GLP-1 (1 μM), read-out: Assay 1 Emax (%)
Excerpt: In Table 5 and Table 6, assay data are presented to two (2) significant figures as the geometric mean (EC50s) and arithmetic mean (Emax) based on the number of replicates listed (Number). A blank cell means there was no data for that Example or the Emax was not calculated.

Chain of human GLP-1R (P43220 24-463 G168S): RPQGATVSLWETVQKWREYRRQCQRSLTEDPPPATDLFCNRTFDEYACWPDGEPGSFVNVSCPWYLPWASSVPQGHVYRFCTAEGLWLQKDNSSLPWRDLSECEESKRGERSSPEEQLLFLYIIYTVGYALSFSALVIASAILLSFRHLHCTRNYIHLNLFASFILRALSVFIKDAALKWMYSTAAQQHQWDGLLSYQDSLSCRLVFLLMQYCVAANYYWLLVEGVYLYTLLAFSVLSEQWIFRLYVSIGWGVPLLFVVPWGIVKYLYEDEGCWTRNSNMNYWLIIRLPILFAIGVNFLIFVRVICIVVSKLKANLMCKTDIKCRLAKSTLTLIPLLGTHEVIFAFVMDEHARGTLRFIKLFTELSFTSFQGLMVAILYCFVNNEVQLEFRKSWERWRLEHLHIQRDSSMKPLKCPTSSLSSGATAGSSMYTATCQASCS

SMILES	EC50	Emax
CN1CCC[C@@H]1Cn1c(CN2CCC(c3cccc(OCc4ccc(Cl)cc4F)n3)CC2)nc2ccc(C(=O)O)cc21 [Compound 309B, 2-[(4-{6-[(4-chloro-2-fluorobenzyl)oxy]pyridin-2-yl}piperidin-1-yl)methyl]-1-{[(2R)-1-methylpyrrolidin-2-yl]methyl}-1H-benzimidazole-6-carboxylic acid]	300 nM	66%
Cc1cc(Cn2c(CN3CCC(c4cccc(OCc5ccc(Cl)cc5F)n4)CC3)nc3ccc(C(=O)O)cc32)no1 [Compound 310B, 2-[(4-{6-[(4-chloro-2-fluorobenzyl)oxy]pyridin-2-yl}piperidin-1-yl)methyl]-1-[(5-methyl-1,2-oxazol-3-yl)methyl]-1H-benzimidazole-6-carboxylic acid]	320 nM	79%
Cn1cc(Cn2c(CN3CCC(c4cccc(OCc5ccc(Cl)cc5F)n4)CC3)nc3ccc(C(=O)O)cc32)nn1 [Compound 311B, 2-[(4-{6-[(4-chloro-2-fluorobenzyl)oxy]pyridin-2-yl}piperidin-1-yl)methyl]-1-[(1-methyl-1H-1,2,3-triazol-4-yl)methyl]-1H-benzimidazole-6-carboxylic acid]	350 nM	71%
O=C(O)c1ccc2nc(CN3CCC(c4cccc(OCc5ccc(Cl)cc5F)n4)CC3)n(Cc3cnc[nH]3)c2c1 [Compound 312B, 2-[(4-{6-[(4-chloro-2-fluorobenzyl)oxy]pyridin-2-yl}piperidin-1-yl)methyl]-1-(1H-imidazol-5-ylmethyl)-1H-benzimidazole-6-carboxylic acid]	380 nM	68%
COCCCn1c(CN2CCC(c3cccc(OCc4ccc(Cl)cc4F)n3)CC2)nc2ccc(C(=O)O)cc21 [Compound 313B, 2-[(4-{6-[(4-chloro-2-fluorobenzyl)oxy]pyridin-2-yl}piperidin-1-yl)methyl]-1-(3-methoxypropyl)-1H-benzimidazole-6-carboxylic acid]	380 nM	75%
CCn1ccnc1Cn1c(CN2CCC(c3cccc(OCc4ccc(Cl)cc4F)n3)CC2)nc2ccc(C(=O)O)cc21 [Compound 314B, 2-[(4-{6-[(4-chloro-2-fluorobenzyl)oxy]pyridin-2-yl}piperidin-1-yl)methyl]-1-[(1-ethyl-1H-imidazol-2-yl)methyl]-1H-benzimidazole-6-carboxylic acid]	390 nM	69%
O=C(O)c1ccc2nc(CN3CCC(c4cccc(OCc5ccc(Cl)cc5F)n4)CC3)n(CC3CCCOC3)c2c1 (stereo not drawn) [Compound 315B, 2-[(4-{6-[(4-chloro-2-fluorobenzyl)oxy]pyridin-2-yl}piperidin-1-yl)methyl]-1-(tetrahydro-2H-pyran-3-ylmethyl)-1H-benzimidazole-6-carboxylic acid]	440 nM	86%
CN1CC(Cn2c(CN3CCC(c4cccc(OCc5ccc(Cl)cc5F)n4)CC3)nc3ccc(C(=O)O)cc32)CC1=O (stereo not drawn) [Compound 317B, 2-[(4-{6-[(4-chloro-2-fluorobenzyl)oxy]pyridin-2-yl}piperidin-1-yl)methyl]-1-[(1-methyl-5-oxopyrrolidin-3-yl)methyl]-1H-benzimidazole-6-carboxylic acid]	500 nM	69%
Cn1cc(Cn2c(CN3CCC(c4cccc(OCc5ccc(Cl)cc5F)n4)CC3)nc3ccc(C(=O)O)cc32)cn1 [Compound 318B, 2-[(4-{6-[(4-chloro-2-fluorobenzyl)oxy]pyridin-2-yl}piperidin-1-yl)methyl]-1-[(1-methyl-1H-pyrazol-4-yl)methyl]-1H-benzimidazole-6-carboxylic acid]	520 nM	–
Cn1cc(CCn2c(CN3CCC(c4cccc(OCc5ccc(Cl)cc5F)n4)CC3)nc3ccc(C(=O)O)cc32)nn1 [Compound 319B, 2-[(4-{6-[(4-chloro-2-fluorobenzyl)oxy]pyridin-2-yl}piperidin-1-yl)methyl]-1-[2-(1-methyl-1H-1,2,3-triazol-4-yl)ethyl]-1H-benzimidazole-6-carboxylicacid]	1100 nM	47%
COC[C@H](C)n1c(CN2CCC(c3cccc(OCc4ccc(Cl)cc4F)n3)CC2)nc2ccc(C(=O)O)cc21 [Compound 320B, 2-[(4-{6-[(4-chloro-2-fluorobenzyl)oxy]pyridin-2-yl}piperidin-1-yl)methyl]-1-[(2S)-1-methoxypropan-2-yl]-1H-benzimidazole-6-carboxylic acid]	1100 nM	65%
COC[C@@H](C)n1c(CN2CCC(c3cccc(OCc4ccc(Cl)cc4F)n3)CC2)nc2ccc(C(=O)O)cc21 [Compound 321B, 2-[(4-{6-[(4-chloro-2-fluorobenzyl)oxy]pyridin-2-yl}piperidin-1-yl)methyl]-1-[(2R)-1-methoxypropan-2-yl]-1H-benzimidazole-6-carboxylic acid]	1100 nM	81%
Cc1cc(Cn2c(CN3CCC(c4cccc(OCc5ccc(Cl)cc5F)n4)CC3)nc3ccc(C(=O)O)cc32)on1 [Compound 322B, 2-[(4-{6-[(4-chloro-2-fluorobenzyl)oxy]pyridin-2-yl}piperidin-1-yl)methyl]-1-[(3-methyl-1,2-oxazol-5-yl)methyl]-1H-benzimidazole-6-carboxylic acid]	1400 nM	97%
O=C(O)c1ccc2nc(CN3CCC(c4cccc(OCc5ccc(Cl)cc5F)n4)CC3)n(CC3CCCCO3)c2c1 (stereo not drawn) [Compound 323B, 2-[(4-{6-[(4-chloro-2-fluorobenzyl)oxy]pyridin-2-yl}piperidin-1-yl)methyl]-1-(tetrahydro-2H-pyran-2-ylmethyl)-1H-benzimidazole-6-carboxylic acid]	1600 nM	80%
O=C(O)c1ccc2nc(CN3CCC(c4cccc(OCc5ccc(Cl)cc5F)n4)CC3)n(CC3CCOCC3)c2c1 [Compound 324B, 2-[(4-{6-[(4-chloro-2-fluorobenzyl)oxy]pyridin-2-yl}piperidin-1-yl)methyl]-1-(tetrahydro-2H-pyran-4-ylmethyl)-1H-benzimidazole-6-carboxylic acid]	1900 nM	79%
O=C(O)c1ccc2nc(CN3CCC(c4cccc(OCc5ccc(Cl)cc5F)n4)CC3)n(CCN3CCOCC3)c2c1 [Compound 325B, 2-[(4-{6-[(4-chloro-2-fluorobenzyl)oxy]pyridin-2-yl}piperidin-1-yl)methyl]-1-[2-(morpholin-4-yl)ethyl]-1H-benzimidazole-6-carboxylic acid]	2200 nM	87%
O=C(O)c1ccc2nc(CN3CCC(c4cccc(OCc5ccc(Cl)cc5F)n4)CC3)n(CC3CC(F)(F)C3)c2c1 [Compound 326B, 2-[(4-{6-[(4-chloro-2-fluorobenzyl)oxy]pyridin-2-yl}piperidin-1-yl)methyl]-1-[(3,3-difluorocyclobutyl)methyl]-1H-benzimidazole-6-carboxylic acid]	2500 nM	71%
CC(c1nncn1C)n1c(CN2CCC(c3cccc(OCc4ccc(Cl)cc4F)n3)CC2)nc2ccc(C(=O)O)cc21 (stereo not drawn) [Compound 327B, 2-[(4-{6-[(4-chloro-2-fluorobenzyl)oxy]pyridin-2-yl}piperidin-1-yl)methyl]-1-[1-(4-methyl-4H-1,2,4-triazol-3-yl)ethyl]-1H-benzimidazole-6-carboxylic acid]	2900 nM	88%
Cn1cnnc1CCn1c(CN2CCC(c3cccc(OCc4ccc(Cl)cc4F)n3)CC2)nc2ccc(C(=O)O)cc21 [Compound 328B, 2-[(4-{6-[(4-chloro-2-fluorobenzyl)oxy]pyridin-2-yl}piperidin-1-yl)methyl]-1-[2-(4-methyl-4H-1,2,4-triazol-3-yl)ethyl]-1H-benzimidazole-6-carboxylic acid]	3100 nM	51%
CCN1CCC[C@@H]1Cn1c(CN2CCC(c3cccc(OCc4ccc(Cl)cc4F)n3)CC2)nc2ccc(C(=O)O)cc21 [Compound 329B, 2-[(4-{6-[(4-chloro-2-fluorobenzyl)oxy]pyridin-2-yl}piperidin-1-yl)methyl]-1-{[(2R)-1-ethylpyrrolidin-2-yl]methyl}-1H-benzimidazole-6-carboxylic acid]	4000 nM	91%
Cc1nc(Cn2c(CN3CCC(c4cccc(OCc5ccc(Cl)cc5F)n4)CC3)nc3ccc(C(=O)O)cc32)c(C)o1 [Compound 330B, 2-[(4-{6-[(4-chloro-2-fluorobenzyl)oxy]pyridin-2-yl}piperidin-1-yl)methyl]-1-[(2,5-dimethyl-1,3-oxazol-4-yl)methyl]-1H-benzimidazole-6-carboxylic acid]	9300 nM	100%
COCc1cc(Cn2c(CN3CCC(c4cccc(OCc5ccc(Cl)cc5F)n4)CC3)nc3ccc(C(=O)O)cc32)[nH]n1 [Compound 337B, 2-[(4-{6-[(4-chloro-2-fluorobenzyl)oxy]pyridin-2-yl}piperidin-1-yl)methyl]-1-{[3-(methoxymethyl)-1H-pyrazol-5-yl]methyl}-1H-benzimidazole-6-carboxylic acid]	560 nM	72%
CN1CCOC(Cn2c(CN3CCC(c4cccc(OCc5ccc(Cl)cc5F)n4)CC3)nc3ccc(C(=O)O)cc32)C1 (stereo not drawn) [Compound 338B, 2-[(4-{6-[(4-chloro-2-fluorobenzyl)oxy]pyridin-2-yl}piperidin-1-yl)methyl]-1-[(4-methylmorpholin-2-yl)methyl]-1H-benzimidazole-6-carboxylic acid]	> 20000 nM	–
O=C(O)c1ccc2nc(CN3CCC(c4cccc(OCc5ccc(Cl)cc5F)n4)CC3)n(CCC3CCOCC3)c2c1 [Compound 340B, 2-[(4-{6-[(4-chloro-2-fluorobenzyl)oxy]pyridin-2-yl}piperidin-1-yl)methyl]-1-[2-(tetrahydro-2H-pyran-4-yl)ethyl]-1H-benzimidazole-6-carboxylic acid]	600 nM	70%
Cc1n[nH]c(CCn2c(CN3CCC(c4cccc(OCc5ccc(Cl)cc5F)n4)CC3)nc3ccc(C(=O)O)cc32)n1 [Compound 341B, 2-[(4-{6-[(4-chloro-2-fluorobenzyl)oxy]pyridin-2-yl}piperidin-1-yl)methyl]-1-[2-(3-methyl-1H-1,2,4-triazol-5-yl)ethyl]-1H-benzimidazole-6-carboxylic acid]	250 nM	64%

From patent publication US20250235460A1, “COMBINATION THERAPY USING GLUCOSE-DEPENDENT INSULINOTROPIC POLYPEPTIDE RECEPTOR ANTAGONIST COMPOUNDS AND GLP-1 RECEPTOR AGONIST COMPOUNDS” (Pfizer Inc., priority 2024, published 2025)
